#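 Tested at 5 concentrations; 48 h exposure; 96-well plates; endpoints linearly interpolated, else capped at highest concentration. GI50 = concentration required for 50% inhibition of growth. Definition used: TGI = concentration required for complete inhibition of growth.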
# Legend:
# Assay in all cases: NCI-60 cell line screen, 48 h
# K-562 leukemia = system: K-562 leukemia
# MALME-3M melanoma = system: MALME-3M melanoma
# MCF7 breast = system: MCF7 breast
# OVCAR-4 ovarian = system: OVCAR-4 ovarian
# SNB-75 CNS = system: SNB-75 CNS
# OVCAR-3 ovarian = system: OVCAR-3 ovarian
# CAKI-1 renal = system: CAKI-1 renal
# NCI-H460 lung = system: NCI-H460 lung
# IGROV1 ovarian = system: IGROV1 ovarian
# SK-MEL-5 melanoma = system: SK-MEL-5 melanoma
# SF-295 CNS = system: SF-295 CNS
# SR leukemia = system: SR leukemia
# NCI/ADR-RES ovarian = system: NCI/ADR-RES ovarian
# BT-549 breast = system: BT-549 breast
# HCC-2998 colon = system: HCC-2998 colon
# COLO 205 colon = system: COLO 205 colon
# HCT-15 colon = system: HCT-15 colon
# EKVX NSCLC = system: EKVX NSCLC
# UO-31 renal = system: UO-31 renal
# 786-0 renal = system: 786-0 renal
# MDA-MB-435 = system: MDA-MB-435
# MOLT-4 leukemia = system: MOLT-4 leukemia
# SNB-19 CNS = system: SNB-19 CNS
# SW-620 colon = system: SW-620 colon
# TK-10 renal = system: TK-10 renal
# SF-539 CNS = system: SF-539 CNS
# NCI-H522 lung = system: NCI-H522 lung
# UACC-62 melanoma = system: UACC-62 melanoma
# HS 578T breast = system: HS 578T breast
# HL-60(TB) leukemia = system: HL-60(TB) leukemia
# NCI-H226 lung = system: NCI-H226 lung
# SF-268 CNS = system: SF-268 CNS
# OVCAR-8 ovarian = system: OVCAR-8 ovarian
# ACHN renal = system: ACHN renal
# KM12 colon = system: KM12 colon
# LOX IMVI melanoma = system: LOX IMVI melanoma
# MDA-N = system: MDA-N
# UACC-257 melanoma = system: UACC-257 melanoma
# A498 renal = system: A498 renal
# SK-MEL-2 melanoma = system: SK-MEL-2 melanoma
# HCT-116 colon = system: HCT-116 colon
# RXF 393 renal = system: RXF 393 renal
# SK-MEL-28 melanoma = system: SK-MEL-28 melanoma
# NCI-H23 lung = system: NCI-H23 lung
# RPMI-8226 leukemia = system: RPMI-8226 leukemia
# SN12C renal = system: SN12C renal
# OVCAR-5 ovarian = system: OVCAR-5 ovarian
# HOP-62 NSCLC = system: HOP-62 NSCLC
# U251 CNS = system: U251 CNS
# PC-3 prostate = system: PC-3 prostate
# MDA-MB-231 breast = system: MDA-MB-231 breast
# HT29 colon = system: HT29 colon
# CCRF-CEM leukemia = system: CCRF-CEM leukemia
# DU-145 prostate = system: DU-145 prostate
# HOP-92 NSCLC = system: HOP-92 NSCLC
# T-47D breast = system: T-47D breast
# A549 NSCLC = system: A549 NSCLC
# M14 melanoma = system: M14 melanoma
# SK-OV-3 ovarian = system: SK-OV-3 ovarian
smiles,measurement,setting,value
CCC[C@H]1C(=O)N=C(N)N1C(=O)OCc1ccccc1,TGI,K-562 leukemia,> 100 µM
same,TGI,MALME-3M melanoma,> 100 µM
same,TGI,MCF7 breast,> 100 µM
same,TGI,OVCAR-4 ovarian,> 100 µM
same,TGI,SNB-75 CNS,> 100 µM
same,TGI,OVCAR-3 ovarian,> 100 µM
same,TGI,CAKI-1 renal,> 100 µM
same,TGI,NCI-H460 lung,> 100 µM
same,TGI,IGROV1 ovarian,> 100 µM
same,TGI,SK-MEL-5 melanoma,> 100 µM
same,TGI,SF-295 CNS,> 100 µM
same,TGI,SR leukemia,> 100 µM
same,TGI,NCI/ADR-RES ovarian,> 100 µM
same,TGI,BT-549 breast,> 100 µM
same,TGI,HCC-2998 colon,> 100 µM
same,TGI,COLO 205 colon,> 100 µM
same,TGI,HCT-15 colon,> 100 µM
same,TGI,EKVX NSCLC,> 100 µM
same,TGI,UO-31 renal,> 100 µM
same,TGI,786-0 renal,> 100 µM
same,TGI,MDA-MB-435,> 100 µM
same,TGI,MOLT-4 leukemia,> 100 µM
same,TGI,SNB-19 CNS,> 100 µM
same,TGI,SW-620 colon,> 100 µM
same,TGI,TK-10 renal,> 100 µM
same,TGI,SF-539 CNS,> 100 µM
same,TGI,NCI-H522 lung,> 100 µM
same,TGI,UACC-62 melanoma,> 100 µM
same,TGI,HS 578T breast,> 100 µM
same,TGI,HL-60(TB) leukemia,> 100 µM
same,TGI,NCI-H226 lung,> 100 µM
same,TGI,SF-268 CNS,> 100 µM
same,TGI,OVCAR-8 ovarian,> 100 µM
same,TGI,ACHN renal,> 100 µM
same,TGI,KM12 colon,> 100 µM
same,TGI,LOX IMVI melanoma,> 100 µM
same,TGI,MDA-N,> 100 µM
same,TGI,UACC-257 melanoma,> 100 µM
same,TGI,A498 renal,> 100 µM
same,TGI,SK-MEL-2 melanoma,> 100 µM
same,TGI,HCT-116 colon,> 100 µM
same,TGI,RXF 393 renal,> 100 µM
same,TGI,SK-MEL-28 melanoma,> 100 µM
same,TGI,NCI-H23 lung,> 100 µM
same,TGI,RPMI-8226 leukemia,> 100 µM
same,TGI,SN12C renal,> 100 µM
same,TGI,OVCAR-5 ovarian,> 100 µM
same,TGI,HOP-62 NSCLC,> 100 µM
same,TGI,U251 CNS,> 100 µM
same,TGI,PC-3 prostate,> 100 µM
same,TGI,MDA-MB-231 breast,> 100 µM
same,TGI,HT29 colon,> 100 µM
CNC(=O)c1cncc(/C=C/c2ccccc2C)c1,GI50,K-562 leukemia,> 25 µM
same,TGI,K-562 leukemia,> 25 µM
same,GI50,MALME-3M melanoma,> 25 µM
same,TGI,MALME-3M melanoma,> 25 µM
same,GI50,CCRF-CEM leukemia,> 25 µM
same,TGI,CCRF-CEM leukemia,> 25 µM
same,GI50,MCF7 breast,> 25 µM
same,TGI,MCF7 breast,> 25 µM
same,GI50,OVCAR-4 ovarian,> 25 µM
same,TGI,OVCAR-4 ovarian,> 25 µM
same,GI50,SNB-75 CNS,> 20.7 µM
same,TGI,SNB-75 CNS,> 25 µM
same,GI50,OVCAR-3 ovarian,> 25 µM
same,TGI,OVCAR-3 ovarian,> 25 µM
same,GI50,DU-145 prostate,> 25 µM
same,TGI,DU-145 prostate,> 25 µM
same,GI50,CAKI-1 renal,> 25 µM
same,TGI,CAKI-1 renal,> 25 µM
same,GI50,NCI-H460 lung,> 25 µM
same,TGI,NCI-H460 lung,> 25 µM
same,GI50,IGROV1 ovarian,> 25 µM
same,TGI,IGROV1 ovarian,> 25 µM
same,GI50,HOP-92 NSCLC,> 25 µM
same,TGI,HOP-92 NSCLC,> 25 µM
same,GI50,T-47D breast,> 25 µM
same,TGI,T-47D breast,> 25 µM
same,GI50,SK-MEL-5 melanoma,> 25 µM
same,TGI,SK-MEL-5 melanoma,> 25 µM
same,GI50,SF-295 CNS,> 25 µM
same,TGI,SF-295 CNS,> 25 µM
same,GI50,SR leukemia,> 25 µM
same,TGI,SR leukemia,> 25 µM
same,GI50,NCI/ADR-RES ovarian,> 25 µM
same,TGI,NCI/ADR-RES ovarian,> 25 µM
same,GI50,BT-549 breast,> 25 µM
same,TGI,BT-549 breast,> 25 µM
same,GI50,HCC-2998 colon,> 25 µM
same,TGI,HCC-2998 colon,> 25 µM
same,GI50,COLO 205 colon,> 25 µM
same,TGI,COLO 205 colon,> 25 µM
same,GI50,HCT-15 colon,> 25 µM
same,TGI,HCT-15 colon,> 25 µM
same,GI50,EKVX NSCLC,> 25 µM
same,TGI,EKVX NSCLC,> 25 µM
same,GI50,UO-31 renal,> 25 µM
same,TGI,UO-31 renal,> 25 µM
same,GI50,786-0 renal,> 25 µM
same,TGI,786-0 renal,> 25 µM
same,GI50,MDA-MB-435,> 25 µM
same,TGI,MDA-MB-435,> 25 µM
same,GI50,MOLT-4 leukemia,> 25 µM
same,TGI,MOLT-4 leukemia,> 25 µM
same,GI50,SNB-19 CNS,> 25 µM
same,TGI,SNB-19 CNS,> 25 µM
same,GI50,SW-620 colon,> 25 µM
same,TGI,SW-620 colon,> 25 µM
same,GI50,A549 NSCLC,> 25 µM
same,TGI,A549 NSCLC,> 25 µM
same,GI50,TK-10 renal,> 25 µM
same,TGI,TK-10 renal,> 25 µM
same,GI50,SF-539 CNS,> 25 µM
same,TGI,SF-539 CNS,> 25 µM
same,GI50,NCI-H522 lung,> 25 µM
same,TGI,NCI-H522 lung,> 25 µM
same,GI50,UACC-62 melanoma,> 25 µM
same,TGI,UACC-62 melanoma,> 25 µM
same,GI50,HS 578T breast,> 25 µM
same,TGI,HS 578T breast,> 25 µM
same,GI50,HL-60(TB) leukemia,> 25 µM
same,TGI,HL-60(TB) leukemia,> 25 µM
same,GI50,NCI-H226 lung,> 25 µM
same,TGI,NCI-H226 lung,> 25 µM
same,GI50,SF-268 CNS,> 25 µM
same,TGI,SF-268 CNS,> 25 µM
same,GI50,OVCAR-8 ovarian,> 25 µM
same,TGI,OVCAR-8 ovarian,> 25 µM
same,GI50,M14 melanoma,> 25 µM
same,TGI,M14 melanoma,> 25 µM
same,GI50,ACHN renal,> 25 µM
same,TGI,ACHN renal,> 25 µM
same,GI50,KM12 colon,> 25 µM
same,TGI,KM12 colon,> 25 µM
same,GI50,LOX IMVI melanoma,> 25 µM
same,TGI,LOX IMVI melanoma,> 25 µM
same,GI50,UACC-257 melanoma,> 25 µM
same,TGI,UACC-257 melanoma,> 25 µM
same,GI50,SK-OV-3 ovarian,> 25 µM
same,TGI,SK-OV-3 ovarian,> 25 µM
same,GI50,A498 renal,17.4 µM
same,TGI,A498 renal,> 25 µM
same,GI50,SK-MEL-2 melanoma,> 25 µM
same,TGI,SK-MEL-2 melanoma,> 25 µM
same,GI50,HCT-116 colon,> 25 µM
same,TGI,HCT-116 colon,> 25 µM
same,GI50,RXF 393 renal,> 25 µM
same,TGI,RXF 393 renal,> 25 µM
same,GI50,SK-MEL-28 melanoma,> 25 µM
same,TGI,SK-MEL-28 melanoma,> 25 µM
same,GI50,NCI-H23 lung,> 25 µM
same,TGI,NCI-H23 lung,> 25 µM
same,GI50,RPMI-8226 leukemia,> 25 µM
same,TGI,RPMI-8226 leukemia,> 25 µM
same,GI50,SN12C renal,> 25 µM
same,TGI,SN12C renal,> 25 µM
same,GI50,OVCAR-5 ovarian,> 25 µM
same,TGI,OVCAR-5 ovarian,> 25 µM
same,GI50,HOP-62 NSCLC,> 25 µM
same,TGI,HOP-62 NSCLC,> 25 µM
same,GI50,U251 CNS,> 25 µM
same,TGI,U251 CNS,> 25 µM
same,GI50,PC-3 prostate,> 25 µM
same,TGI,PC-3 prostate,> 25 µM
same,GI50,MDA-MB-231 breast,> 25 µM
same,TGI,MDA-MB-231 breast,> 25 µM
same,GI50,HT29 colon,> 25 µM
same,TGI,HT29 colon,> 25 µM
